Measured values: PubChem BioAssay AID1963861 (Molecular Pharmacology Branch, DTP, NCI, 2024)
pIC50: −log10 of the molar value.

System: 885724-159-R-J1-PDC KRAS PDC multicell spheroid viability
Test: Anticancer human tumor 885724-159-R-J1-PDC patient-derived pancreatic adenocarcinoma cell line growth inhibition [KRAS2]
Settings: for pIC50: curve of first compound; for viability, T/C: stronger effect = lower value
Summary of the method: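 Combination screen of spheroid viability in tumor-cell co-cultures with endothelial (HUVEC) and mesenchymal stem cell stroma. Each agent was tested in half-log dilutions, topping at clinical Cmax or at 10 microM without a known Cmax.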

[1] = second compound 0.1 µM, first compound 0.01 µM
[2] = second compound 0.1 µM, first compound 0.0316 µM
[3] = second compound 0.1 µM, first compound 0.1 µM
[4] = second compound 0.1 µM, first compound 0.316 µM
[5] = second compound 0.1 µM, first compound 1 µM
[6] = second compound 0.1 µM, first compound 3.16 µM
[7] = second compound 0.316 µM, first compound 0.01 µM
[8] = second compound 0.316 µM, first compound 0.0316 µM
[9] = second compound 0.316 µM, first compound 0.1 µM
[10] = second compound 0.316 µM, first compound 0.316 µM
[11] = second compound 0.316 µM, first compound 1 µM
[12] = second compound 0.316 µM, first compound 3.16 µM
[13] = second compound 1 µM, first compound 0.01 µM
[14] = second compound 1 µM, first compound 0.0316 µM
[15] = second compound 1 µM, first compound 0.1 µM
[16] = second compound 1 µM, first compound 0.316 µM
[17] = second compound 1 µM, first compound 1 µM
[18] = second compound 1 µM, first compound 3.16 µM
[19] = second compound 3.16 µM, first compound 0.01 µM
[20] = second compound 3.16 µM, first compound 0.0316 µM
[21] = second compound 3.16 µM, first compound 0.1 µM
[22] = second compound 3.16 µM, first compound 0.316 µM
[23] = second compound 3.16 µM, first compound 1 µM
[24] = second compound 3.16 µM, first compound 3.16 µM
[25] = second compound 10 µM, first compound 0.01 µM
[26] = second compound 10 µM, first compound 0.0316 µM
[27] = second compound 10 µM, first compound 0.1 µM
[28] = second compound 10 µM, first compound 0.316 µM
[29] = second compound 10 µM, first compound 1 µM
[30] = second compound 10 µM, first compound 3.16 µM
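Also: spheroids exposed to agents for 7 days before readout.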

Work on CC1COCCN1c1cc(-c2ccnn2C)c2ccnc(-c3ccn[nH]3)c2n1 (stereo not given) + CNCc1ccccc1-c1csc(C(C)Nc2nc(C)nc3cc(OC)c(OC)cc23)c1 yielded a pIC50 (second compound 0.1 µM) of under 5.50, a pIC50 (second compound 0.316 µM) of under 5.50 and a pIC50 (second compound 1 µM) of under 5.50. The pIC50 (second compound 3.16 µM) was over 8.00, the pIC50 (second compound 10 µM) was over 8.00 and the viability, T/C [1] was 108%. It also gave a viability, T/C [2] of 85.3%, a viability, T/C [3] of 80.1% and a viability, T/C [4] of 61.4%. It also gave a viability, T/C [5] of 58.8%, a viability, T/C [6] of 58.8% and a viability, T/C [7] of 108%. For the same molecule, the viability, T/C [8] was 90.4%, the viability, T/C [9] was 73.8% and the viability, T/C [10] was 64.2%. The viability, T/C [11] was 57.8%, the viability, T/C [12] was 57.4% and the viability, T/C [13] was 106%. For the same molecule, the viability, T/C [14] was 84.4%, the viability, T/C [15] was 75.1% and the viability, T/C [16] was 64.7%. It also gave a viability, T/C [17] of 55.7%, a viability, T/C [18] of 56.8% and a viability, T/C [19] of 2.14%. It also gave a viability, T/C [20] of 0.77%, a viability, T/C [21] of 0.58% and a viability, T/C [22] of 0.86%. The viability, T/C [23] was 1.55%, the viability, T/C [24] was 1.97% and the viability, T/C [25] was 0.21%. It also gave a viability, T/C [26] of 0.23%, a viability, T/C [27] of 0.26% and a viability, T/C [28] of 0.24%. It also gave a viability, T/C [29] of 0.22% and a viability, T/C [30] of 0.28%.
Work on CC(=O)OC12COC1CC(O)C1(C)C(=O)C(O)C3=C(C)C(OC(=O)C(O)C(NC(=O)OC(C)(C)C)c4ccccc4)CC(O)(C(OC(=O)c4ccccc4)C21)C3(C)C (stereo not given) + COc1cc2nc(C)nc(NC(C)c3cc(N)cc(C(F)(F)F)c3)c2cc1OC1CCOC1 yielded a pIC50 (second compound 0.1 µM) of under 5.50, a pIC50 (second compound 0.316 µM) of under 5.50 and a pIC50 (second compound 1 µM) of under 5.50. It also gave a pIC50 (second compound 3.16 µM) of under 5.50, a pIC50 (second compound 10 µM) of under 5.50 and a viability, T/C [1] of 105%. For the same molecule, the viability, T/C [2] was 116%, the viability, T/C [3] was 113% and the viability, T/C [4] was 122%. For the same molecule, the viability, T/C [5] was 135%, the viability, T/C [6] was 132% and the viability, T/C [7] was 104%. The viability, T/C [8] was 112%, the viability, T/C [9] was 116% and the viability, T/C [10] was 125%. The viability, T/C [11] was 120%, the viability, T/C [12] was 126% and the viability, T/C [13] was 104%. For the same molecule, the viability, T/C [14] was 130%, the viability, T/C [15] was 127% and the viability, T/C [16] was 132%. It also gave a viability, T/C [17] of 142%, a viability, T/C [18] of 141% and a viability, T/C [19] of 95.1%. For the same molecule, the viability, T/C [20] was 104%, the viability, T/C [21] was 121% and the viability, T/C [22] was 111%. It also gave a viability, T/C [23] of 119%, a viability, T/C [24] of 119% and a viability, T/C [25] of 90.2%. For the same molecule, the viability, T/C [26] was 105%, the viability, T/C [27] was 119% and the viability, T/C [28] was 121%. For the same molecule, the viability, T/C [29] was 117% and the viability, T/C [30] was 111%.
With CN(C)C/C=C/C(=O)Nc1cc2c(Nc3ccc(F)c(Cl)c3)ncnc2cc1O[C@H]1CCOC1 + COc1cc2nc(C)nc(NC(C)c3cc(N)cc(C(F)(F)F)c3)c2cc1OC1CCOC1 the pIC50 (second compound 0.1 µM) was under 7.00, the pIC50 (second compound 0.316 µM) was under 7.00 and the pIC50 (second compound 1 µM) was under 7.00. It also gave a pIC50 (second compound 3.16 µM) of under 7.00, a pIC50 (second compound 10 µM) of under 7.00 and a viability, T/C (second compound 0.1 µM, first compound 0.000316 µM) of 116%. It also gave a viability, T/C (second compound 0.1 µM, first compound 0.001 µM) of 103%, a viability, T/C (second compound 0.1 µM, first compound 0.00316 µM) of 97.1% and a viability, T/C [1] of 88.9%. The viability, T/C [2] was 79.6%, the viability, T/C [3] was 69.2% and the viability, T/C (second compound 0.316 µM, first compound 0.000316 µM) was 98.7%. The viability, T/C (second compound 0.316 µM, first compound 0.001 µM) was 102%, the viability, T/C (second compound 0.316 µM, first compound 0.00316 µM) was 92.9% and the viability, T/C [7] was 89%. The viability, T/C [8] was 67.3%, the viability, T/C [9] was 66.7% and the viability, T/C (second compound 1 µM, first compound 0.000316 µM) was 96.4%. The viability, T/C (second compound 1 µM, first compound 0.001 µM) was 120%, the viability, T/C (second compound 1 µM, first compound 0.00316 µM) was 110% and the viability, T/C [13] was 96%. For the same molecule, the viability, T/C [14] was 79.1%, the viability, T/C [15] was 73.3% and the viability, T/C (second compound 3.16 µM, first compound 0.000316 µM) was 88.4%. The viability, T/C (second compound 3.16 µM, first compound 0.001 µM) was 102%, the viability, T/C (second compound 3.16 µM, first compound 0.00316 µM) was 80.3% and the viability, T/C [19] was 72.5%. For the same molecule, the viability, T/C [20] was 68%, the viability, T/C [21] was 61.8% and the viability, T/C (second compound 10 µM, first compound 0.000316 µM) was 87.1%. The viability, T/C (second compound 10 µM, first compound 0.001 µM) was 85.7%, the viability, T/C (second compound 10 µM, first compound 0.00316 µM) was 75.2% and the viability, T/C [25] was 63.1%. For the same molecule, the viability, T/C [26] was 60% and the viability, T/C [27] was 61.2%.
O=C(c1cc(Cc2n[nH]c(=O)c3ccccc23)ccc1F)N1CCN(C(=O)C2CC2)CC1 + COc1cc2nc(C)nc(NC(C)c3cc(N)cc(C(F)(F)F)c3)c2cc1OC1CCOC1 showed a pIC50 (second compound 0.1 µM) of under 5.00, a pIC50 (second compound 0.316 µM) of under 5.00 and a pIC50 (second compound 1 µM) of under 5.00. For the same molecule, the pIC50 (second compound 3.16 µM) was under 5.00, the pIC50 (second compound 10 µM) was under 5.00 and the viability, T/C [2] was 129%. It also gave a viability, T/C [3] of 122%, a viability, T/C [4] of 110% and a viability, T/C [5] of 113%. For the same molecule, the viability, T/C [6] was 98.2%, the viability, T/C (second compound 0.1 µM, first compound 10 µM) was 95% and the viability, T/C [8] was 113%. For the same molecule, the viability, T/C [9] was 106%, the viability, T/C [10] was 104% and the viability, T/C [11] was 103%. The viability, T/C [12] was 98%, the viability, T/C (second compound 0.316 µM, first compound 10 µM) was 91.5% and the viability, T/C [14] was 129%. The viability, T/C [15] was 134%, the viability, T/C [16] was 132% and the viability, T/C [17] was 115%. The viability, T/C [18] was 111%, the viability, T/C (second compound 1 µM, first compound 10 µM) was 91.4% and the viability, T/C [20] was 91.4%. The viability, T/C [21] was 102%, the viability, T/C [22] was 94.8% and the viability, T/C [23] was 95.2%. It also gave a viability, T/C [24] of 91.9%, a viability, T/C (second compound 3.16 µM, first compound 10 µM) of 81.7% and a viability, T/C [26] of 97%. The viability, T/C [27] was 102%, the viability, T/C [28] was 98.4% and the viability, T/C [29] was 92.5%. For the same molecule, the viability, T/C [30] was 107% and the viability, T/C (second compound 10 µM, first compound 10 µM) was 93.3%.
